Results on 20 compounds are retold here after US20250179027A1, “CYCLOALKYL OR HETEROCYCLYL SUBSTITUTED HETEROARYL COMPOUND, AND COMPOSITION AND USE THEREOF” (Shenzhen TargetRx, Inc., priority 2022, published 2025).

Each structure is given as a SMILES string. pIC50: −log10 of the molar value.

Experiment [1] has as its target T1, phosphorylated BTK Y223 in NIH/3T3 BTK WT cells (Homo sapiens, UniProt Q06187).
T1 construct: expressed in transfected cells; host or cells: NIH/3T3 (mouse fibroblasts) engineered to express BTK WT
Kind of experiment: Phosphor-BTK(Y223) assay, NIH/3T3 BTK WT cells. The class given is cell-based. The conditions noted are these: phosphorylated BTK Y223, NIH/3T3 BTK WT cells; read-out: NIH/3T3 BTK-WT pBTK IC50. How it is done:
(§1) The purpose of this assay is to simply, quickly and directly detect the endogenous level of BTK in cells. The specific assay steps are as follows: Day 1: NIH/3T3 BTK WT cells (7.5 k/well) and NIH/3T3 BTK C481S cells (10 k/well) were plated in 96-well plates, respectively, and cultured overnight at 37° C. and 5% CO2.
(§2) • 1. A 3-fold final concentration gradient dilution of the compound was prepared, and 50 μL was added to 100 μL of cell culture; 0.5% DMSO was used as a positive control for cell growth. • 2. The plate was incubated at 37° C., 5% CO2 for 0.5 h. • 3. Na3VO4 with a final concentration of 1 mM was added, and incubated at 37° C. and 5% CO2 for 2 hours. • 4. During the incubation, the following reagents were prepared: 1× added lysis buffer: 3 vol ddH2O+1 vol 4× lysis buffer+100× blocking reagent. p-BTK (Y223) cryptate-antibody and p-BTK (Y223) d2-antibody working solutions: 1 volume of each cryopreserved antibody (stored at −20° C.) was added to 19 times volumes of assay buffer (stored at 4° C.). • 5. After the incubation, the medium was removed and 50 μL of 1× added lysis buffer was added; The mixture was centrifuged at 500 rpm for 30 min at room temperature. • 6. The lysate was mixed well and 16 μL was transferred to a 384-well plate; 1× added lysis buffer was used as a blank control. • 7. 4 μL of pre-mixed working solutions of the two antibodies (cryptate Ab:d2 Ab=1:1) were added and the plate was sealed. • 8. The plate was incubated overnight at room temperature.
(§3) Biotek cytation3.0 microplate reader was used to read the plate at 665 nm and 620 nm, and the ratio of 665/620 nm per well was calculated.
(§4) IC50 was calculated using GraphPad Prism 7.0 software.
(§5) The following nonlinear fitting formula was used to obtain the phosphorylated BTK Y223 IC50 (half phosphorylation inhibitory concentration) of the compounds:
(§6) [formula] • X: Compound concentration log value • Y: Inhibition rate (% inhibition)
(§7) The formula for calculating cell phosphorylation inhibition rate (% inhibition rate) was: […]

Experiment [2] concerns the target T2, phosphorylated BTK Y223 in NIH/3T3 BTK C481S cells (Homo sapiens, UniProt Q06187, C481S).
T2 construct: expressed in transfected cells; host or cells: NIH/3T3 (mouse fibroblasts) engineered to express BTK C481S
Put plainly: Phosphor-BTK(Y223) assay, NIH/3T3 BTK C481S cells. The class given is cell-based. The conditions noted are these: phosphorylated BTK Y223, NIH/3T3 BTK C481S cells; read-out: NIH/3T3 BTK-C481S pBTK IC50. How it is done: as §1, §2, §3, §4, §5, §6, §7

T2 sequence (Q06187 whole entry C481S): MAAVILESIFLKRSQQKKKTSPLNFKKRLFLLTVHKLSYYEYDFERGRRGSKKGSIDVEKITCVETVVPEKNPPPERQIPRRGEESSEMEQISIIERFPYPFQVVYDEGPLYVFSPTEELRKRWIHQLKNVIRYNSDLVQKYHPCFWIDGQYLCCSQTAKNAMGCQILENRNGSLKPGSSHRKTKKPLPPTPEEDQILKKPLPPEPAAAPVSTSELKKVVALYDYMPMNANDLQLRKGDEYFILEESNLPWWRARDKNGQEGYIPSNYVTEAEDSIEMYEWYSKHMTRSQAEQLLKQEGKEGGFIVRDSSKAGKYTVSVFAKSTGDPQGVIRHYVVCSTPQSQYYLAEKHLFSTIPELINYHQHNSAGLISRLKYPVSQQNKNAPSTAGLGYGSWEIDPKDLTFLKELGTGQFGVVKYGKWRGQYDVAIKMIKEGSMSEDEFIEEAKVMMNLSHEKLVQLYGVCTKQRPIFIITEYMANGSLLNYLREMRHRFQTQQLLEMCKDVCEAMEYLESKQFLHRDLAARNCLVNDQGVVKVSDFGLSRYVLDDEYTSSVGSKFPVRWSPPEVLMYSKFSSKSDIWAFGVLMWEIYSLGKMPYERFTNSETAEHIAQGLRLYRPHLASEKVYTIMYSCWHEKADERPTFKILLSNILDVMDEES
T1 sequence (Q06187 whole entry): as the sequence (Q06187 whole entry C481S) above, with S481C counted along it

On to `COc1ccc(F)cc1C(=O)NCc1ccc(-n2cc(C3CCC(CO)OC3)c3ncnc(N)c32)cc1` (single isomer, unassigned) [Example 52, N-(4-(4-amino-7-(6-(hydroxymethyl)tetrahydro-2H-pyran-3-yl)-5H-pyrrolo[3,2-d]pyrimidin-5-yl)benzyl)-5-fluoro-2-methoxybenzamide], for which the pIC50 in experiment [1] is 7.00 to 7.30; in experiment [2], 6.30 to 7.00.
For `COc1ccc(F)cc1C(=O)NCc1ccc(-c2nn(C3CCC(CO)OC3)c3ncnc(N)c23)cc1` (single isomer, unassigned) [Example 17, N-(4-(4-amino-1-(6-(hydroxymethyl)tetrahydro-2H-pyran-3-yl)-1H-pyrazolo[3,4-d]pyrimidin-3-yl)benzyl)-5-fluoro-2-methoxybenzamide] the same measures were 6.30 to 7.00 and 6.30 to 7.00.
On the same counts, the results for `COc1ccc(F)cc1C(=O)NCc1ccc(-c2nn([C@H]3CC[C@H](O)CC3)c3c(=O)[nH]nc(N)c23)cc1` [Example 40, trans-N-(4-(4-amino-1-((1R,4R)-4-hydroxycyclohexanyl)-7-oxo-6,7-dihydro-1H-pyrazolo[3,4-d]pyridazin-3-yl)benzyl)-5-fluoro-2-methoxybenzamide] are 7.30 to 7.60 and 7.00 to 7.30.
On the same counts, the results for `COc1ccc(F)cc1C(=O)NCc1ccc(-c2nn(C3CCC(CO)OC3)c3c(=O)[nH]nc(N)c23)cc1` (stereo not drawn) [Example 43, N-(4-(4-amino-1-(6-(hydroxymethyl)tetrahydro-2H-pyran-3-yl)-7-oxo-6,7-dihydro-1H-pyrazolo[3,4-d]pyridazin-3-yl)benzyl)-5-fluoro-2-methoxybenzamide] are 6.30 to 7.00 and 6.30 to 7.00.
Turning to `COc1ccc(F)cc1C(=O)NCc1ccc(-c2nn([C@H]3CC[C@@H](O)CC3)c3c(=O)[nH]nc(N)c23)cc1` [Example 39, cis-N-(4-(4-amino-1-((1S,4S)-4-hydroxycyclohexanyl)-7-oxo-6,7-dihydro-1H-pyrazolo[3,4-d]pyridazin-3-yl)benzyl)-5-fluoro-2-methoxybenzamide], the figures for the pIC50 in experiment [1] and in experiment [2] were 7.00 to 7.30 and 6.30 to 7.00, respectively.
For `COc1ccc(F)cc1C(=O)NCc1ccc(-n2cc(C3CCC(CO)OC3)c3ncnc(N)c32)cc1` (single isomer, unassigned) [Example 51, N-(4-(4-amino-7-(6-(hydroxymethyl)tetrahydro-2H-pyran-3-yl)-5H-pyrrolo[3,2-d]pyrimidin-5-yl)benzyl)-5-fluoro-2-methoxybenzamide] the same measures were 7.30 to 7.60 and 7.00 to 7.30.
On the same counts, the results for `COc1ccc(F)cc1C(=O)NCc1ccc(-c2cc(C3CCC(CO)OC3)n3ncnc(N)c23)cc1` (stereo not drawn) [Example 58, N-(4-(4-amino-7-(6-(hydroxymethyl)tetrahydro-2H-pyran-3-yl)pyrrolo[2,1-f][1,2,4]triazin-5-yl)benzyl)-5-fluoro-2-methoxybenzamide] are at least 7.60 and 7.30 to 7.60.
Take `COc1ccc(F)cc1C(=O)NCc1ccc(-c2nn([C@@H]3C=C[C@@H](O)C3)c3ncnc(N)c23)cc1` (single isomer, unassigned) [Example 38, trans-N-(4-(4-amino-1-(4-hydroxycyclopent-2-en-1-yl)-1H-pyrazolo[3,4-d]pyrimidin-3-yl)benzyl)-5-fluoro-2-methoxybenzamide]: the pIC50 in experiment [1] was at least 7.60; in experiment [2], 7.30 to 7.60.
For `COc1ccc(F)cc1C(=O)NCc1ccc(-c2nn(C3CCC(CO)OC3)c(N)c2C(N)=O)cc1` (single isomer, unassigned) [Example 14, 5-amino-3-(4-((5-fluoro-2-methoxybenzamido)methyl)phenyl)-1-(6-(hydroxymethyl)tetrahydro-2H-pyran-3-yl)-1H-pyrazole-4-carboxamide] the same measures were 7.00 to 7.30 and 6.30 to 7.00.
With `COc1ccc(F)cc1C(=O)NCc1ccc(-c2nn(C3CCCC(O)C3)c(N)c2C(N)=O)cc1` (stereo not drawn) [Example 1, 5-amino-3-(4-((5-fluoro-2-methoxybenzoylamino)methyl)phenyl)-1-(3-hydroxycyclohexyl)-1H-pyrazole-4-carboxamide], the pIC50 in experiment [1] and in experiment [2] was 6.30 to 7.00 in each case.
As to `COc1ccc(F)cc1C(=O)NCc1ccc(-c2nn(C3CCCC(C)(O)C3)c3ncnc(N)c23)cc1` (single isomer, unassigned) [Example 23, N-(4-(4-amino-1-(3-hydroxy-3-methylcyclohexanyl)-1H-pyrazolo[3,4-d]pyrimidin-3-yl)benzyl)-5-fluoro-2-methoxybenzamide], the pIC50 in experiment [1] and in experiment [2] was 7.30 to 7.60 in each case.
For the compound `COc1ccc(F)cc1C(=O)NCc1ccc(-c2nn(C3CCCC(O)C3)c(N)c2C(N)=O)cc1` (single isomer, unassigned) [Example 3, 5-amino-3-(4-((5-fluoro-2-methoxybenzamido)methyl)phenyl)-1-(3-hydroxycyclohexyl)-1H-pyrazole-4-carboxamide], the pIC50 in experiment [1] and in experiment [2] was 6.30 to 7.00 in each case.
Take `COc1ccc(F)cc1C(=O)NCc1ccc(-c2nn(C3CCC(CO)OC3)c(N)c2C(N)=O)cc1` (stereo not drawn) [Example 12, 5-amino-3-(4-((5-fluoro-2-methoxybenzamido)methyl)phenyl)-1-(6-(hydroxymethyl)tetrahydro-2H-pyran-3-yl)-1H-pyrazole-4-carboxamide]: the pIC50 in experiment [1] and in experiment [2] was 6.30 to 7.00 each time.
Regarding `COc1ccc(F)cc1C(=O)NCc1ccc(-c2nn([C@H]3CCC[C@H](O)C3)c3ncnc(N)c23)cc1` (racemic) [Example 9, trans-N-(4-(4-amino-1-(3-hydroxycyclohexanyl)-1H-pyrazolo[3,4-d]pyrimidin-3-yl)benzyl)-5-fluoro-2-methoxybenzamide], the pIC50 in experiment [1] and in experiment [2] was at least 7.60 each time.
For the compound `COc1ccc(F)cc1C(=O)NCc1ccc(-c2nn([C@@H]3C=C[C@@H](O)C3)c3ncnc(N)c23)cc1` (single isomer, unassigned) [Example 50, trans-N-(4-(4-amino-1-(4-hydroxycyclopent-2-en-1-yl)-1H-pyrazolo[3,4-d]pyrimidin-3-yl)benzyl)-5-fluoro-2-methoxybenzamide], the pIC50 in experiment [1] was at least 7.60; in experiment [2] it was 7.30 to 7.60.
On the same counts, the results for `COc1ccc(F)cc1C(=O)NCc1ccc(-c2nn(C3CCCC(C)(O)C3)c3ncnc(N)c23)cc1` (single isomer, unassigned) [Example 27, N-(4-(4-amino-1-(3-hydroxy-3-methylcyclohexanyl)-1H-pyrazolo[3,4-d]pyrimidin-3-yl)benzyl)-5-fluoro-2-methoxybenzamide] are at least 7.60 and 7.30 to 7.60.
For `COc1ccc(F)cc1C(=O)NCc1ccc(-c2nn(C3CCCC(C)(O)C3)c3ncnc(N)c23)cc1` (single isomer, unassigned) [Example 28, N-(4-(4-amino-1-(3-hydroxy-3-methylcyclohexanyl)-1H-pyrazolo[3,4-d]pyrimidin-3-yl)benzyl)-5-fluoro-2-methoxybenzamide] the same measures were at least 7.60 and 7.30 to 7.60.
On the same counts, the results for `COc1ccc(F)cc1C(=O)NCc1ccc(-c2nn(C3CCCC(C)(O)C3)c3ncnc(N)c23)cc1` (single isomer, unassigned) [Example 25, N-(4-(4-amino-1-(3-hydroxy-3-methylcyclohexanyl)-1H-pyrazolo[3,4-d]pyrimidin-3-yl)benzyl)-5-fluoro-2-methoxybenzamide] are 7.30 to 7.60 and 7.30 to 7.60.
Consider `COc1ccc(F)cc1C(=O)NCc1ccc(-c2nn(C3CCCC(C)(O)C3)c3ncnc(N)c23)cc1` (single isomer, unassigned) [Example 26, N-(4-(4-amino-1-(3-hydroxy-3-methylcyclohexanyl)-1H-pyrazolo[3,4-d]pyrimidin-3-yl)benzyl)-5-fluoro-2-methoxybenzamide], for which the pIC50 in experiment [1] was 7.30 to 7.60; in experiment [2], 7.00 to 7.30.
As for `COc1ccc(F)cc1C(=O)NCc1ccc(-c2nn(C3CCC(CO)OC3)c3c(=O)[nH]nc(N)c23)cc1` (single isomer, unassigned) [Example 48, N-(4-(4-amino-1-(6-(hydroxymethyl)tetrahydro-2H-pyran-3-yl)-7-oxo-6,7-dihydro-1H-pyrazolo[3,4-d]pyridazin-3-yl)benzyl)-5-fluoro-2-methoxybenzamide], the pIC50 in experiment [1] is 6.30 to 7.00.
